Broadly, the IC50 is the concentration that gives 50% inhibition. Read a high IC50 as a need for much substance.

Molecules are shown by their SMILES.

Data on 39 compounds can be found in patent US10450301B2, “Apoptosis signal-regulating kinase 1 inhibitors and methods of use thereof” (ENANTA PHARMACEUTICALS, INC., priority 2017, dated 2019).

The target in the assay is ASK1 (Homo sapiens (Human), UniProt Q99683). The experiment in a line: HTRF KinEASE Assay (TR-FRET, STK3 peptide substrate), inhibition of ASK1. Type of assay: biochemical. As to conditions: 5 nM ASK1 kinase, 1 μM STK3 peptide substrate, 100 μM ATP, 3 hours; compound 0 to 10 μM. The protocol:
Assay HTRF® KinEASE™ Assay
ASK1 was purchased from Thermofisher (Catalogue # PV4011), ATP was purchased from Sigma (Catalogue # A7699), HI-TRF® KinEASE™ Assay System was obtained from Cisbio (Bedford, Mass.). […] HTRF® KinEASE™-STK is a generic method for measuring serine/threonine kinase activities using a time-resolved fluorescence resonance energy transfer (TR-FRET) immunoassay. […] 100 Um ATP is added to start kinase reaction and incubated for 3 hours. The STK3-antibody labeled with Eu^3+-Cryptate and 125 Nm streptavidin-XL665 are mixed in a single addition with stop reagents provided by the Cisbio kit used to stop the kinase reaction. […] The resulting TR-FRET is proportional to the phosphorylation level. Staurosporine was used as the positive control. IC50 was determined by Xlfit 5.3.
By using above method, the inhibition of ASK1 was evaluated for the compounds of Formula (I).
For orientation: Time-resolved FRET reads energy transfer from a long-lived donor to a nearby acceptor.

ASK1, sequence (Q99683 whole entry): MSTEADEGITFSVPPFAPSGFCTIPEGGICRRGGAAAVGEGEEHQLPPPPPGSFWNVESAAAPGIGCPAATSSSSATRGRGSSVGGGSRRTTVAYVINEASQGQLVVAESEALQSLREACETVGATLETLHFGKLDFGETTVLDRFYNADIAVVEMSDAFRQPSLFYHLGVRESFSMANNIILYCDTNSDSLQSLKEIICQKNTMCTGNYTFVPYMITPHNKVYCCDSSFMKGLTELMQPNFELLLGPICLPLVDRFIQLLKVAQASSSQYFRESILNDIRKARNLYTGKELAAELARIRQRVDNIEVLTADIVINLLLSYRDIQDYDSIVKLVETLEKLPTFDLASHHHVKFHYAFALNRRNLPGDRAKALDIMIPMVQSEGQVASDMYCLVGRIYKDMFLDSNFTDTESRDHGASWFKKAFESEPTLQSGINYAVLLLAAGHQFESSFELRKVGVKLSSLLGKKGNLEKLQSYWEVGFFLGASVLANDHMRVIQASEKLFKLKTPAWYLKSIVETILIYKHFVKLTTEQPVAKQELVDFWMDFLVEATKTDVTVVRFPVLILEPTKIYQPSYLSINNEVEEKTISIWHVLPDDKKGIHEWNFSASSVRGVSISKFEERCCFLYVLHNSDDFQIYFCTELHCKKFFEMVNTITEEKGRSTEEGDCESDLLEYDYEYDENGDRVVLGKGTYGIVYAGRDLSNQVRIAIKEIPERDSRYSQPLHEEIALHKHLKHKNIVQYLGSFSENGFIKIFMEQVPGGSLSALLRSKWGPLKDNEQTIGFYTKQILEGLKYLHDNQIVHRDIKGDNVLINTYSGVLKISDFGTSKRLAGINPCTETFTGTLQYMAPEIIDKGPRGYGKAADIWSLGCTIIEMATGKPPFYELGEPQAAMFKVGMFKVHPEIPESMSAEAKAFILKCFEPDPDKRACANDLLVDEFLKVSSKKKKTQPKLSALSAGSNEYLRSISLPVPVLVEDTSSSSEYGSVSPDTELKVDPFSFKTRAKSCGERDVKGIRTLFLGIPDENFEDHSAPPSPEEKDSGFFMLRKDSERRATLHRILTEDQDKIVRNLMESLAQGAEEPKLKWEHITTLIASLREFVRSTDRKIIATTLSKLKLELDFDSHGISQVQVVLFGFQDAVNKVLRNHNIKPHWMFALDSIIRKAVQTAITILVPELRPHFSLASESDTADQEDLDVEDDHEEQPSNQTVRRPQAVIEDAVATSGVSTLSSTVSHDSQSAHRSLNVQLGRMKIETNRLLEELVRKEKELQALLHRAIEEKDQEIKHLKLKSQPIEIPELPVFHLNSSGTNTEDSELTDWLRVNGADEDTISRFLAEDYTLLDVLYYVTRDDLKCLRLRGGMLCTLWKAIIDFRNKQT

Regarding `CCN(CC)C(=O)N1CCc2cc(F)c(C(=O)Nc3cccc(-c4nnnn4C(C)C)n3)cc2C1` [Example 94], the IC50 was in the range of 1 to 10 nM. To `C[C@H](CO)n1nnnc1-c1cccc(NC(=O)c2cc3c(cn2)CCN(C(=O)N2CCC2)C3)n1` [Example 185, (R)-6-(azetidine-1-carbonyl)-N-(6-(1-(1-hydroxypropan-2-yl)-1H-tetrazol-5-yl)pyridin-2-yl)-5,6,7,8-tetrahydro-2,6-naphthyridine-3-carboxamide] belongs 1 to 10 nM; to `CC(C)n1cnnc1-c1cccc(NC(=O)c2cc3c(cc2F)CCN(S(=O)(=O)NC2CC2)C3)n1` [Example 20, 2-(N-cyclopropylsulfamoyl)-6-fluoro-N-(6-(4-isopropyl-4H-1,2,4-triazol-3-yl)pyridin-2-yl)-1,2,3,4-tetrahydroisoquinoline-7-carboxamide], 1 to 10 nM. To `CC(C)n1cnnc1-c1cccc(NC(=O)c2ccc3c(c2)CN(C(=O)N2CCCC2)C3)n1` [Example 17] belongs 10 to 100 nM; to `CC(C)n1nnnc1-c1cccc(NC(=O)c2cc3c(cc2F)CCN(S(=O)(=O)N(C)C)C3)n1` [Example 89], 10 to 100 nM. Next, `C[C@H](CO)n1nnnc1-c1cccc(NC(=O)c2cc3c(cn2)CCN(S(=O)(=O)N(C)C)C3)n1` [Example 166]: 1 to 10 nM. `CC(C)n1cnnc1-c1cccc(NC(=O)c2ccc3c(c2)CN(C(=O)c2nccs2)CC3)n1` [Example 32]: the IC50 is 10 to 100 nM.

Compound `CC(=O)OC[C@@H](C)n1nnnc1-c1cccc(NC(=O)c2cc3c(cn2)CCN(C(=O)OC(C)(C)C)C3)n1` [Example 147, tert-butyl (R)-7-((6-(1-(1-acetoxypropan-2-yl)-1H-tetrazol-5-yl)pyridin-2-yl)carbamoyl)-3,4-dihydro-2,6-naphthyridine-2(1H)-carboxylate] returned an IC50 of 100 to 1000 nM.

Take `C[C@H](CO)n1nnnc1-c1cccc(NC(=O)c2cc3c(cn2)CCN(C(=O)NC2COC2)C3)n1` [Example 186]: the IC50 fell in the range of 10 to 100 nM. To `CCN(CC)C(=O)N1CCc2cc(F)c(C(=O)Nc3cccc(-c4nncn4C(C)C)n3)cc2C1` [Example 41] belongs 1 to 10 nM; to `CC(C)n1nnnc1-c1cccc(NC(=O)c2cc3c(cn2)CCN(C(=O)OC(C)(C)C)C3)n1` [Example 153, tert-butyl 7-((6-(1-isopropyl-1H-tetrazol-5-yl)pyridin-2-yl)carbamoyl)-3,4-dihydro-2,6-naphthyridine-2(1H)-carboxylate], 10 to 100 nM.

`CC(C)NC(=O)N1CCc2cnc(C(=O)Nc3cccc(-c4nnnn4[C@H](C)CO)n3)cc2C1` [Example 132] yielded an IC50 of 1 to 10 nM. The compound `CC(C)n1nnnc1-c1cccc(NC(=O)c2cc3c(cc2F)CCN(c2ccccc2)C3)n1` [Example 54, 6-fluoro-N-(6-(1-isopropyl-1H-tetrazol-5-yl)pyridin-2-yl)-2-phenyl-1,2,3,4-tetrahydroisoquinoline-7-carboxamide] registered an IC50 of 10 to 100 nM. Next, `COC(=O)N1CCc2cnc(C(=O)Nc3cccc(-c4nnnn4[C@H](C)CO)n3)cc2C1` [Example 128]: 1 to 10 nM; `CC(C)S(=O)(=O)N1CCc2cnc(C(=O)Nc3cccc(-c4nnnn4[C@H](C)CO)n3)cc2C1` [Example 149]: 1 to 10 nM; `CC(C)n1nnnc1-c1cccc(NC(=O)c2cc3c(cn2)CCN(S(=O)(=O)C2CC2)C3)n1` [Example 110, 6-(cyclopropylsulfonyl)-N-(6-(1-isopropyl-1H-tetrazol-5-yl)pyridin-2-yl)-5,6,7,8-tetrahydro-2,6-naphthyridine-3-carboxamide]: 1 to 10 nM. Next, `CCNS(=O)(=O)N1CCc2cc(F)c(C(=O)Nc3cccc(-c4nncn4C(C)C)n3)cc2C1` [Example 22]: 1 to 10 nM.

The compound `CC(C)CN(C)C(=O)N1CCc2cc(F)c(C(=O)Nc3cccc(-c4nnnn4C(C)C)n3)cc2C1` [Example 79] yielded an IC50 of 10 to 100 nM.

Compound `COCCNC(=O)N1CCc2cnc(C(=O)Nc3cccc(-c4nnnn4[C@H](C)CO)n3)cc2C1` [Example 130] showed an IC50 of 1 to 10 nM. To `CC(C)n1cnnc1-c1cccc(NC(=O)c2cc3c(cc2F)CCN(C(=O)OCc2ccccc2)C3)n1` [Example 53, benzyl 6-fluoro-7-((6-(4-isopropyl-4H-1,2,4-triazol-3-yl)pyridin-2-yl)carbamoyl)-3,4-dihydroisoquinoline-2(1H)-carboxylate] belongs 10 to 100 nM. Next, `COCCS(=O)(=O)N1CCc2cnc(C(=O)Nc3cccc(-c4nnnn4C(C)C)n3)cc2C1` [Example 138]: 1 to 10 nM; `C[C@H](CO)n1nnnc1-c1cccc(NC(=O)c2cc3c(cn2)CCN(C(=O)N(C)C)C3)n1` [Example 168]: 1 to 10 nM; `CC(C)n1nnnc1-c1cccc(NC(=O)c2cc3c(cc2F)CCN(C(=O)N(C)C)C3)n1` [Example 96]: 10 to 100 nM.

The compound `CCOC(=O)N1CCc2cnc(C(=O)Nc3cccc(-c4nnnn4C(C)C)n3)cc2C1` [Example 118] came in with an IC50 of 1 to 10 nM.

`CC(C)n1nnnc1-c1cccc(NC(=O)c2cc3c(cc2F)CCN(S(=O)(=O)C2CCCC2)C3)n1` [Example 85] showed an IC50 of 10 to 100 nM. To `CC(=O)OC[C@@H](C)n1nnnc1-c1cccc(NC(=O)c2cc3c(cc2F)CCN(C(=O)N(C)CC(F)(F)F)C3)n1` [Example 72] belongs greater than 1000 nM; to `CC(C)CN1CCc2cnc(C(=O)Nc3cccc(-c4nnnn4[C@H](C)CO)n3)cc2C1` [Example 164], 1 to 10 nM; to `C[C@H](CO)n1nnnc1-c1cccc(NC(=O)c2cc3c(cn2)CCN(S(=O)(=O)CCC(F)(F)F)C3)n1` [Example 150], 1 to 10 nM.

The compound `CC(C)CS(=O)(=O)N1CCc2cnc(C(=O)Nc3cccc(-c4nnnn4C(C)C)n3)cc2C1` [Example 141] displayed an IC50 of 1 to 10 nM. Consider `C=CCN1CCc2ccc(C(=O)Nc3cccc(-c4nncn4C(C)C)n3)cc2C1` [Example 39, 2-allyl-N-(6-(4-isopropyl-4H-1,2,4-triazol-3-yl)pyridin-2-yl)-1,2,3,4-tetrahydroisoquinoline-7-carboxamide], for which the IC50 lay within 100 to 1000 nM. Next, `CC(C)n1nnnc1-c1cccc(NC(=O)c2cc3c(cc2F)CCN(C(=O)OCc2ccccc2)C3)n1` [Example 31]: 10 to 100 nM; `CC(C)n1cnnc1-c1cccc(NC(=O)c2cc3c(cc2F)CCN(S(=O)(=O)N(C)C)C3)n1` [Example 49]: 1 to 10 nM; `C[C@H](CO)n1nnnc1-c1cccc(NC(=O)c2cc3c(cn2)CCN(C(=O)NC2CCCC2)C3)n1` [Example 169]: 1 to 10 nM. To `CC(C)COC(=O)N1CCc2ccc(C(=O)Nc3cccc(-c4nncn4C(C)C)n3)cc2C1` [Example 66] belongs 10 to 100 nM; to `CC(C)n1nnnc1-c1cccc(NC(=O)c2cc3c(cc2F)CCN(S(=O)(=O)CCC(F)(F)F)C3)n1` [Example 40], 10 to 100 nM; to `CCCN1CCc2cnc(C(=O)Nc3cccc(-c4nnnn4[C@H](C)CO)n3)cc2C1` [Example 165], 1 to 10 nM. Next, `CC(C)n1cnnc1-c1cccc(NC(=O)c2cc3c(cc2F)CCN(S(=O)(=O)CC2CC2)C3)n1` [Example 43]: 10 to 100 nM. In turn, `CC(C)n1nnnc1-c1cccc(NC(=O)c2cc3c(cc2F)CCN(C(=O)N(C)C2CCCC2)C3)n1` [Example 78] had an IC50 of 10 to 100 nM.

For the compound `CCN(C)C(=O)N1CCc2cnc(C(=O)Nc3cccc(-c4nnnn4[C@H](C)CO)n3)cc2C1` [Example 167], the IC50 fell in the range of 1 to 10 nM.
